Patent publication US6335339B1, “Triazine antiviral compounds” (Scriptgen Pharmaceuticals, Inc., priority 1998, dated 2002)
Where two headings read alike, the source gives them in different places.

Experiments:
2.2.15 cells = assay: neutral red dye uptake cytotoxicity; format: cell-based; conditions: 9 days treatment, read-out: 50% Cell Death CC50
Experimental: Further, the antiviral effect of any compound must be measured against its toxicity. Cytotoxicity is measured by the neutral red uptake method using the same cells used for antiviral activity.
2b. Compounds were prepared for toxicity treatment as follows: For each compound, a total of 4 concentrations were examined. This required 9 sets of 4 sterile, 1.1 ml minitubes (36 tubes per compound). Into the first tube of each set, sufficient compound was aliquoted to make up 465 μl of the highest test concentration. The other tubes were left empty. The tubes were covered with the rack lids, and stored at −20° C. or at an appropriate temperature. Tubes for the last day of treatment for toxicity testing contain the same amount of compound as used the previous days (not 3xas for the antiviral assays).
3b. The cytotoxicity of test compounds was analyzed in a 3.3-fold dilution series as follows. […] (155 μl×3) of RP2 were added to the first tube (containing the aliquot of compound) and 310 μL (155 μl×2) RP2 to each of the 3 remaining tubes. 150 μl of test compound-containing medium were serially transferred from the first tube to the other 3 tubes.
5. A single plate was used for the toxicity treatments for each test compound (up to 7 compounds per plates since the top row were reserved for untreated cells on every toxicity plate). To initiate the treatments, the culture medium was removed, and 100 μl of each dilution of every compound were added to each of 3 wells using a configuration similar to that shown above for the antiviral treatments. The untreated cells received 100 μl RP2 per well. Treatment was repeated daily for 9 days.
The antiviral effect of any compound was evaluated relative to its toxicity. Cells were seeded and treated following the guidelines above, after which a neutral red dye uptake assay was performed to assess toxicity as described below. Other assays of cytotoxicity (e.g., MTT) can be substituted for the procedure described below. Note that this procedure assesses toxicity under culture and treatment conditions which are identical to those used for the antiviral analyses, thereby permitting a determination as to whether the reduction in virus production due to a specific antiviral effect or due to a cytotoxic effect on the host cell. Since the cultures, by necessity, are at confluence, the cytotoxic effects of the test compounds will probably be reduced relative to the cytotoxic effects that would be expected for actively dividing cells.
1. Cultures were treated with test compounds on the designated toxicity plates as described above.
2. The culture medium was carefully removed 24 hours following the 9th day of treatment. The monolayer was fully removed in the top left three wells (row A, col. 1-3). These wells were used as “blanks” for the plate reader.
3. 100 μl DPBS (containing 0.01% neutral red dye) were added to each well, including the empty wells, and Incubated in the tissue culture incubator for 30 minutes.
4. The dye was removed carefully and gently, using a multichannel pipetman since the monolayers can become fragile after incubation with neutral red dye. 200 μl DPBS were added to all the wells taking care not to displace the monolayers. The DPBS was removed and 100 μl 50% EtOH/1% glacial acetic acid (in H2O) were added to each well. The plates were mixed for 15 minutes on an orbital platform shaker (120-150 RPM) to allow for full extraction of the dye from the cells.
5. Optical absorbance at 510 nm was read in an ELISA type plate reader, using the 3 empty wells to set the background. An average absorbance value was calculated for the 9 untreated cultures on a plate, and the absorbance of dye for the treated cultures on the same plate was expressed as a percentage of that value. This procedure was repeated for each individual plate. […]

HBV = assay: antiviral assay in 2.2.15 cells producing HBV (virion DNA dot blot); format: cell-based, Hepatitis B virus
From the text: Several cell lines and cell culture assays have been developed to identify potential therapeutics effective against chronic HBV infection. One of these cell lines, 2.2.15, has been used in a standardized assay that has repeatedly proven to be an accurate model of chronic cellular HBV replication and a predictive model of antiviral response for chronic hepadnaviral infection in vivo. 2.2.15 cells contain copies of the complete HBV genome integrated into the cell's genome, and 2.2.15 cells are not susceptible to infection by HBV. (Sells, M. A. et al., J. Virol. 62 (8): 2836-2844 (1988)). These cells express HBV genes producing complete HBV particles capable of infecting chimpanzees (Acs, G. et al., Proc. Natl. Acad. Sci. USA 84 (13): 4641-4644 (1987)). Briefly, 2.2.15 cells are cultured and pretreated with a test compound for about 9 days, at which point the media are harvested and subjected to dot-blot hybridization to detect HBV virion DNA.
The antiviral activity of the compounds of the present invention is measured by the methods described in Korba and Gering, Antiviral Res. 19: 55-70 (1992).
This assay format is well suited to the screening of test compounds for potential antiviral activity. The assay provides a threshold assessment of antiviral activity by measuring (i) the levels of HBV virion release from the cells and (ii) cytotoxicity. Two rows of cells were used for each compound, and 4 rows for the assay controls (two for untreated, and two for positive antiviral control, e.g., 3TC). After incubating in the presence of test compound for 9 days, the media were harvested, transferred to 96-well U-bottom plates, and centrifuged. The supernatants were transferred to tubes for dot blot hybridization analysis of HBV virion DNA. The medium was aspirated off of the toxicity plates and discarded. Toxicity plates were then incubated with neutral red dye (MTT can also be used if preferred), washed with DPBS, developed with an acetic acid-ethanol solution, and assayed in a plate reader.
1. 2.2.15 cells were seeded into 96-well, flat bottom tissue culture plates as described above. Duplicate plates were used for the antiviral treatments for each test compound (up to 8 compounds per pair of plates); after three to four days, cells were confluent and medium was yellow in color; the medium was removed and replaced with 100 μl RP2 24 hours before the beginning of drug treatment.
i) For each compound, a total of 4 concentrations were examined; this required 9 sets of 4 sterile, 1.1 ml minitubes (36 tubes per compound). Into the first tube of each set, sufficient compound was aliquoted to make up 700 μl (for 10-fold dilution series) or 980 μl (for 3.3-fold dilution series) of the highest test concentration; the other tubes were left empty.
i) For a 10-fold dilution series: to the first (compound containing) tube was added 700 μl (175 μl×4). 630 μl (210 μl×3) RP2 culture medium was added to the remaining 3 tubes. The first tube was mixed by pipeting up and down with a pipetman (a multichannel pipetman permits the simultaneous processing of multiple compounds). 70 μl of test compound-containing medium were serially transferred from the first tube to the other 3 tubes, taking care to thoroughly mix each tube before transferring medium;
b) 100 μl of each dilution of every compound was added to each of 6 wells (3 wells per plate) using the configuration listed below as an example. The lowest concentration was added first, and the same tips were used to add the higher concentrations. The untreated cells received 100 μl RP2 per well (untreated cells have to be carried on only one pair of the antiviral assay plates).
c) Treatments were repeated daily for 9 days. For the last day of treatment, and additional 200 μl RP2 were added to each well of the antiviral assay plates after the wells are treated with the test compounds (a total of 300 μl medium per well).
6. […]

[1] = extra-cellular virus reduced by 50%, 2.2.15 cells, 9 days treatment, read-out: Antiviral EC50

Row | SMILES | CC50 (2.2.15 cells) | EC50 (HBV; [1]) | EC50 (HBV; Hepatitis B virus, 216 h, read-out: Antiviral EC50 (μM)) | EC50 (HBV; Hepatitis B virus, 216 h, extra-cellular virus reduced by 50%, 2.2.15 cells, 9 days treatment, read-out: Antiviral EC50)
1 | Cc1ccc(Nc2nc(NCc3ccccc3)nc(Nc3ccc([N+](=O)[O-])cc3)n2)cc1C [Compound 194] | 626 µM | > 100 µM |  | 
2 | COc1ccc(Nc2nc(NN=Cc3ccc(Cl)cc3)nc(Nc3ccccc3)n2)cc1 [Compound 22] | 47 µM | > 100 µM |  | 
3 | Cc1ccc(Nc2nc(NN=Cc3ccccc3)nc(Nc3ccccc3)n2)cc1 [Compound 25] | 105 µM | 1 µM |  | 
4 | CN(C)c1nc(NCc2ccccc2)nc(NCc2cccs2)n1 [Compound 192] | 739 µM | > 100 µM |  | 
5 | Cc1ccc(Nc2nc(NN=Cc3ccc(I)cc3)nc(Nc3ccccc3)n2)c(C)c1 [Compound 113] | > 300 µM | > 100 µM |  | 
6 | CNc1nc(NN=Cc2cc(Cl)ccc2O)nc(Nc2ccccc2)n1 [Compound 245] | 137 µM | > 100 µM |  | 
7 | Cc1ccc(Nc2nc(NCc3ccccc3)nc(NN=Cc3cc(Cl)ccc3O)n2)cc1C [Compound 226] | 280 µM | > 100 µM |  | 
8 | CCN(CC)c1nc(NN=Cc2ccc([N+](=O)[O-])cc2)nc(Nc2ccccc2)n1 [Compound 13] | > 300 µM | 8.4 µM |  | 
9 | COc1c(C=NNc2nc(NCc3ccccc3)nc(Nc3ccccc3)n2)cccc1[N+](=O)[O-] [Compound 162] | 436 µM | 0.923 µM |  | 
10 | CCCCN(CCCC)c1nc(NN=Cc2cccc(Cl)c2)nc(Nc2ccc([N+](=O)[O-])cc2)n1 [Compound 35] | 3.9 µM | 2.3 µM |  | 
11 | C(=Cc1ccccc1)C=NNc1nc(Nc2ccccc2)nc(Nc2ccccc2)n1 [Compound 125] | 265 µM | 3.9 µM |  | 
12 | Oc1ccc2ccccc2c1C=NNc1nc(Nc2cccc3ccccc23)nc(N2CCOCC2)n1 [Compound 167] | 161 µM | 1.7 µM |  | 
13 | CC(=NNc1nc(NCc2ccccc2)nc(Nc2ccccc2)n1)c1ccc([N+](=O)[O-])cc1 [Compound 182] | > 300 µM | 54 µM |  | 
14 | O=[N+]([O-])c1ccc(Nc2nc(NCc3ccccc3)nc(NN=Cc3ccccc3)n2)cc1 [Compound 24] | 75 µM | 18 µM |  | 
15 | Ic1cccc(C=NNc2nc(Nc3ccc4ccccc4c3)nc(N3CCOCC3)n2)c1 [Compound 166] | 252 µM | 1.4 µM |  | 
16 | Oc1ccc(I)cc1C=NNc1nc(NCc2ccccc2)nc(Nc2ccccc2)n1 [Compound 33] | 50 µM | > 100 µM |  | 
17 | Clc1ccc(C=NNc2nc(Nc3ccccc3)nc(N3CCCC3)n2)cc1 [Compound 218] | > 300 µM | > 100 µM |  | 
18 | Cc1[nH]c2ccccc2c1C=NNc1nc(Nc2ccccc2)nc(Nc2ccc([N+](=O)[O-])cc2)n1 [Compound 6] | 29 µM | 0.3 µM |  | 

Row | SMILES | CC50 (2.2.15 cells) | EC50 (HBV; [1]) | EC50 (HBV; Hepatitis B virus, 216 h, read-out: Antiviral EC50 (μM)) | EC50 (HBV; Hepatitis B virus, 216 h, extra-cellular virus reduced by 50%, 2.2.15 cells, 9 days treatment, read-out: Antiviral EC50)
19 | CC(=NNc1nc(Nc2ccccc2)nc(N2CCCC2)n1)c1ccc([N+](=O)[O-])cc1 [Compound 183] | > 300 µM | 52 µM |  | 
20 | Cc1ccc(Nc2nc(NN=Cc3ccc(O)cc3O)nc(Nc3ccc([N+](=O)[O-])cc3)n2)cc1C [Compound 9] | 175 µM | 0.474 µM |  | 
21 | Oc1ccc(Cl)cc1C=NNc1nc(Nc2ccc3ccccc3c2)nc(N2CCOCC2)n1 [Compound 160] | > 300 µM | 0.42 µM |  | 
22 | Cc1ccc(Nc2nc(NN=Cc3cc(I)ccc3O)nc(Nc3ccccc3)n2)c(C)c1 [Compound 159] | 101 µM | 0.498 µM |  | 
23 | CCCCN(CCCC)c1nc(N/N=C/c2cc(I)cc(I)c2O)nc(Nc2ccc([N+](=O)[O-])cc2)n1 [Compound 8] | 196 µM | > 100 µM |  | 
24 | COc1ccc(Nc2nc(NN=Cc3ccc(OC)cc3OC)nc(Nc3ccccc3)n2)cc1 [Compound 20] | 7.1 µM | 4.1 µM |  | 
25 | Oc1ccccc1C=NNc1nc(Nc2ccccc2)nc(N2CCCCC2)n1 [Compound 169] | > 300 µM | 2.5 µM |  | 
26 | Cc1ccc(Nc2nc(NCc3cc(F)ccc3F)nc(Nc3ccc([N+](=O)[O-])cc3)n2)cc1C [Compound 248] | 135 µM | > 100 µM |  | 
27 | Cc1ccc(Nc2nc(NN=Cc3ccccc3O)nc(Nc3ccc([N+](=O)[O-])cc3)n2)cc1C [Compound 12] | 77 µM | 0.759 µM |  | 
28 | Cc1cccc(C(=O)Oc2ccc(C=NNc3nc(N4CCCCC4)nc(N4CCCCC4)n3)cc2)c1 [Compound 181] | > 300 µM | 6 µM |  | 
29 | COc1c(C=NNc2nc(Nc3ccccc3)nc(Nc3ccccc3)n2)ccc(Br)c1O [Compound 168] | > 300 µM | 0.7 µM |  | 
30 | CCN(CC)c1nc(NN=Cc2c(O)ccc3ccccc23)nc(Nc2ccccc2)n1 [Compound 171] | 174 µM | 5 µM |  | 
31 | O=[N+]([O-])c1ccc(Nc2nc(NN=Cc3ccc(Br)cc3)nc(N3CCCCCC3)n2)cc1 [Compound 117] | > 300 µM | 4.2 µM |  | 
32 | CCN(CC)c1nc(NN=Cc2ccc(Cl)c([N+](=O)[O-])c2)nc(Nc2cc(C)ccc2C)n1 [Compound 214] | > 300 µM | > 100 µM |  | 
33 | Brc1cccc(C=NNc2nc(Nc3ccccc3)nc(N3CCOCC3)n2)c1 [Compound 163] | 150 µM | 0.958 µM |  | 
34 | Cc1ccc(Nc2nc(Nc3cccc(C(F)(F)F)c3)nc(N3CCOCC3)n2)cc1C [Compound 251] | 96 µM | > 100 µM |  | 
35 | CCN(CC)c1nc(NCc2ccccc2)nc(N/N=C/c2ccccc2O)n1 [Compound 155, 2-hydroxybenzaldehyde N-[4-(benzylamino)-6-(diethylamino)-1,3,5-triazin-2-yl]hydrazone] |  |  | 0.063 µM | 0.001 µM
